Reference: patent US12557817B2, “Bioactive peptides having detrimental effects on pest slugs” (priority 2019, dated 2026)

Legend:
gray garden slugs [1] = assay: Anti-feeding on peptide-treated lettuce leaf; type: in vivo, Deroceras reticulatum; details: lettuce treated with 200 nmol peptide
Method: The gray garden slugs utilized herein (Deroceras reticulatum) were collected in Corvallis, Oregon, USA, and maintained with carrot and lettuce in a controlled incubator (13° C., 90% RH, 14: 10=light:dark, dim light). To test for the effect of the peptides on feeding, slugs were fed a diet of lettuce leaf tissues treated with water alone or with 200 nmol of individual peptides (SEQ ID NO: 19, SEQ ID NO: 25, and SEQ ID NO: 26) dissolved in 10 μL water (FIG. 8). Ten gray garden slugs were used for each treatment and each treatment was replicated three times.

gray garden slugs [2] = assay: Mortality after peptide injection into slugs; type: in vivo, Deroceras reticulatum; details: 100 nmol injected
Method: The gray garden slugs utilized herein (Deroceras reticulatum) were collected in Corvallis, Oregon, USA, and maintained with carrot and lettuce in a controlled incubator (13° C., 90% RH, 14: 10=light:dark, dim light). To test their effects on slugs, 100 nmol of each of the peptides (SEQ ID NO: 1, SEQ ID NO: 3, SEQ ID NO: 19, SEQ ID NO: 25 and SEQ ID NO: 26) was dissolved in 5 μL of purified water (100 nmol) and injected into 10 gray garden slugs per each treatment. Under dry conditions, after 24 h the slug mortalities observed were 40% with SEQ ID NO: 1, 70% with SEQ ID NO: 3, 90% with SEQ ID NO: 19, 70% with SEQ ID NO: 25, and 70% with SEQ ID NO: 26. […] Under wet conditions, the slug mortalities observed within 24 h were 40% with SEQ ID NO: 19, 40% with SEQ ID NO: 25, and 30% with SEQ ID NO: 26.

[3] = test system: two slug GPCRs (receptor A and B) expressed in the Sf9 insect cell line; assay: Binding assay with peptides: calcium fluorescence (FLIPR Calcium 6) in Sf9 cells expressing slug GPCRs; type: cell-based, Deroceras reticulatum; details: for binding activity / activation of the receptors: alanine-substituted or N-terminally reduced peptides of SEQ ID NO: 3, FIG. 5; for EC50: Sf9 cells expressing receptor A or receptor B, receptor not given
Description: The open reading frames (ORFs) of D. reticulatum GPCRs were inserted into a pIB/V5-His TOPO® TA expression vector (Thermo Fisher Scientific) to be expressed in Sf9 cells as described previously (Choi et al., Gen. Comp. Endocrinol., (2017) 246:354-62). To add a Kozak sequence (G/ANNATGG) in the translation initiation the ORFs of D. reticulatum GPCRs were amplified using specific primer sets. The sequences of two different ORFs of D. reticulatum GPCRs were confirmed after insertion into the expression vector.
Small synthetic peptides derived from the PRXamide family members identified from the gray garden slug and insects (Table 1), were tested to determine their binding activities to two slug GPCRs (receptor A and B) expressed in the Sf9 insect cell line. All peptide ligands of SEQ ID NOs: 1-16 and 19-28, as well as the “RY” dipeptide and “PRY” tripeptide (purity >95%) were synthesized from Peptide 2.0 (Chantily, VA, USA). Sf9 cells were cultured as described previously (Choi et al., supra). About 50,000 cells per well in a 96-well plate (Corning C3603) were incubated at 28° C. overnight. At 48 h, cells were rinsed with 100 μL of fresh medium without fetal bovine serum (FBS). Then, cells were incubated in 95 μL of 1×FLIPR Calcium 6 reagent (Molecular Devices, San Jose, CA, USA) containing 2.5 mM probenecid at room temperature in the dark for 1 h. The reagent-loaded cells were transferred to the Flexstation 3 multimode microplate reader (Molecular Devices) equipped with filters (excitation: 485 nm and emission: 520 nm) and an 8-channel pipettor. Fluorescence measurements from each well on the column were taken every 5 s for 4 min. After 30 s the peptide ligand (10 μL) was added with the pipettor and fluorescent intensity was measured for up to 3 min. Then, 5 μL of 1 μM ionomycin (Thermo Fisher Scientific) was added to the cells to obtain a maximum fluorescence reading. Baseline fluorescence was determined by averaging 5 time points from each well prior to treatment with ligand and the resulting response was expressed as a percent increase in fluorescence relative to baseline value. Cells were tested only once with a ligand then discarded. Data were analyzed using Microsoft Excel as described previously, and half-maximal effective concentration (EC50) values of ligands were determined using GraphPad Prism 6 (GraphPad Software, Inc., San Diego, CA).
The binding affinity to the two receptors of these two peptides, QPPLPRY-NH2 (SEQ ID NO: 3) and QPPVPRY-NH2 (SEQ ID NO: 4), was measured based on specific fluorescent intensity of the Sf9 cells expressing receptor A or receptor B in a 96-well plate. A strong fluorescent signal indicated strong binding activity between the peptide ligand and receptor.
To test the effect of varying individual amino acid residues and varying the length of the peptide of SEQ ID NO: 3, different amino acid residues were replaced with alanine (A), or the overall length of the peptide was reduced by sequentially removing amino acid residues from the N-terminal end of SEQ ID NO: 3 (Table 1, SEQ ID NO: 19, SEQ ID NO: 20, SEQ ID NO: 21, SEQ ID NO: 22, SEQ ID NO: 23, SEQ ID NO: 24, SEQ ID NO: 25, SEQ ID NO: 26, SEQ ID NO: 27, SEQ ID NO: 28). Altered peptides were tested and measured for binding activity with the receptors using the same methods as described above.

gray garden slugs [4] = assay: Body weight loss and phenotype after peptide injection into slugs; type: in vivo, Deroceras reticulatum; details: for body weight loss relative to water control: 10 nmol injected, after 72 h
Method: The gray garden slugs utilized herein (Deroceras reticulatum) were collected in Corvallis, Oregon, USA, and maintained with carrot and lettuce in a controlled incubator (13° C., 90% RH, 14: 10=light:dark, dim light). To test their effects on slugs, peptides of SEQ ID NO: 3 and SEQ ID NO: 4 were dissolved in 5 μl of purified water (10 nmol) and injected into four gray garden slugs per each treatment. Over 80% of the slug body weight was lost after 72 h when either peptide was injected into the slugs, almost 2-fold higher than the water control (FIG. 3).

[5] = dry conditions (Petri dish), after 24 h
[6] = wet conditions (Petri dish with wet paper towel), within 24 h

| Substance | slug mortality (gray garden slugs [2]; [5]) [%] | slug mortality (gray garden slugs [2]; [6]) | binding activity / activation of the receptors [3] | further results |
| --- | --- | --- | --- | --- |
| APPLPRY [SEQ ID NO: 19] | 90 | 40% | maintained binding activity and activated the receptors | anti-feeding (gray garden slugs [1]; within 1 h): 93.3%; anti-feeding (gray garden slugs [1]; within 2 h): 91.3%; anti-feeding (gray garden slugs [1]; within 6 h): 80.7% |
| LPRY [SEQ ID NO: 26] | 70 | 30% | retained the ability to activate the receptors | anti-feeding (gray garden slugs [1]; within 1 h): 73.3%; anti-feeding (gray garden slugs [1]; within 2 h): 48.0%; anti-feeding (gray garden slugs [1]; within 6 h): 23.3% |
| PLPRY [SEQ ID NO: 28] |  |  | retained the ability to activate the receptors |  |
| PMSMLRL [SEQ ID NO: 1, synthetic peptide, source D. reticulatum] | 40 |  |  |  |
| PPLPRY [SEQ ID NO: 27] |  |  | retained the ability to activate the receptors |  |
| QAPLPRY [SEQ ID NO: 20] |  |  | maintained binding activity and activated the receptors |  |
| QPALPRY [SEQ ID NO: 21] |  |  | maintained binding activity and activated the receptors |  |
| QPPAPRY [SEQ ID NO: 22] |  |  | maintained binding activity and activated the receptors |  |
| QPPLPRA [SEQ ID NO: 25] | 70 | 40% |  | anti-feeding (gray garden slugs [1]; within 1 h): 66.7%; anti-feeding (gray garden slugs [1]; within 2 h): 46.7%; anti-feeding (gray garden slugs [1]; within 6 h): 16.7% |
| QPPLPRY [SEQ ID NO: 3, synthetic peptide, source D. reticulatum] | 70 | No mortalities were observed |  | EC50 [3]: 1.4 nM; body weight loss relative to water control (gray garden slugs [4]): ~2 fold; phenotypic effects after injection (gray garden slugs [4]; injected peptide, FIG. 4): excreted large volumes of milky mucus within 1 minute, exhibited body paralysis, extruding tentacles, weight loss and dehydration |
| QPPVPRY [SEQ ID NO: 4, synthetic peptide, source D. reticulatum] |  |  |  | EC50 [3]: 12.7 nM; body weight loss relative to water control (gray garden slugs [4]): ~2 fold |
